According to patent US11090319B2, “Therapeutic uses of pharmaceutical compositions comprising cyclic boronic acid ester derivatives” (Melinta Subsidiary Corp., priority 2010, dated 2021):
Where two headings read alike, the source gives them in different places.

Key:
[1] = system: KP1011 Klebsiella pneumoniae SHV-5; experiment: microbe, parasite or virus in culture; assay type: cell-based; details: for Ceftazidime MIC with cyclic boronic acid ester derivative: derivative at 10 μg/mL, KP1011 SHV-5
Method: Next, ceftazidime potentiation activity of several cyclic boronic acid ester derivatives was tested using a larger panel of strains expressing β-lactamase hydrolyzing enzymes. Ceftazidime MICs were determined alone and in the presence of fixed concentrations of various cyclic boronic acid ester derivatives.

SHV-2, lysate of ec306 = SHV-2, lysate of ec306 (Escherichia coli, UniProt P0A9Z7); experiment: Inhibition of ceftazidime hydrolysis by bacterial lysate
[2] = system: AB1052 Acinetobacter baumannii OXA-24; experiment: Checkerboard assay, biapenem potentiation; details: Biapenem MIC 8-fold; AB1052 OXA-24 class D
DHA-1, lysate of EC1014 = DHA-1, lysate of EC1014 (Escherichia coli, UniProt Q84AE0); experiment: Inhibition of ceftazidime hydrolysis by bacterial lysate; details: read-out: IC50 of inhibition of Ceftazidime hydrolysis; EC1014 DHA-1
[3] = system: KP1008 Klebsiella pneumoniae KPC-2; experiment: Checkerboard assay, biapenem potentiation; details: Biapenem MIC 8-fold; KP1008 KPC-2 class A
SHV-12, lysate of KP1010 = SHV-12, lysate of KP1010 (Klebsiella pneumoniae, UniProt P0AD64, E235K/G234S/L31Q); experiment: Inhibition of ceftazidime hydrolysis by bacterial lysate
KPC-3, lysate of EC1007 [4] = target: T1, KPC-3, lysate of EC1007 (Klebsiella pneumoniae, UniProt Q9F663, H272Y); experiment: as above
[5] = system: EC1007 Escherichia coli KPC-3; experiment: Checkerboard assay, biapenem potentiation; details: Biapenem MIC 8-fold; EC1007 KPC-3 class A
[6] = system: strains expressing class A ESBLs; assay type: cell-based
Method: Selected β-lactamase inhibitors were also tested for their ability to potentiate the monobactam tigemonam.

[7] = Single dose pharmacokinetics and oral bioavailability in rats, Table 15; assay type: in vivo, Sprague-Dawley (SD) rats
Method: An in vivo model can be used to evaluate the single dose pharmacokinetic properties and absolute oral bioavailability of a test compound. As described more specifically below, a test compound is administered to Sprague-Dawley (SD) rats either intravenously or orally in a crossover study design and the resulting pharmacokinetic properties and oral bioavailability are measured. […] Plasma samples (0.3 ml) were collected from jugular vein cannula at 0.17, 0.33, 0.47, 0.58, 0.68, 0.75, 1, 2, 3, 4, and 6 hrs after the dosing. […] The samples were mixed and centrifuged for 30 min at 3000×g. 150 μL of supernatant was removed and added to 450 μL of water. HPLC-mass spectrometry: An Agilent 1100HPLC pump, HTC PAL autosampler and a Sciex […] mass spectrometer were used for separation and quantification. Compound 62 and its internal standard were detected using +ESI. Compound 5 and its internal standard were detected using -ESI. LC/MS/MS: 1) Column: Chromolith FastGradient RP-18e, 50×2 mm; 2) Mobile phase A: Aqueous Water with 0.1% TFA, Orgainic phase B: Acetonitrile with 0.1% TFA; Flow Rate: 600 μL/min; Injection volume: 10 μL; […] Plasma concentrations were modeled using WinNonlin® (Pharsight Corp, Mountain View, Calif.). In this experiment, three male Sprague Dawley rats were given Compound 5 by intravenous or oral route. At designated time points, bloods were collected and analyzed. […] Plasma samples were collected at designated time points and analyzed for the presence of Compound 5. […] Male rats (non-fasted) were orally administered 50 mg/kg of the prodrug Compound 62.

KPC-3, lysate of EC1007 [8] = target: T1, KPC-3, lysate of EC1007; experiment: Inhibition of biapenem hydrolysis by bacterial lysate

SHV-12, lysate of KP1010, sequence (P0AD64 22-286 L31Q/G234S/E235K): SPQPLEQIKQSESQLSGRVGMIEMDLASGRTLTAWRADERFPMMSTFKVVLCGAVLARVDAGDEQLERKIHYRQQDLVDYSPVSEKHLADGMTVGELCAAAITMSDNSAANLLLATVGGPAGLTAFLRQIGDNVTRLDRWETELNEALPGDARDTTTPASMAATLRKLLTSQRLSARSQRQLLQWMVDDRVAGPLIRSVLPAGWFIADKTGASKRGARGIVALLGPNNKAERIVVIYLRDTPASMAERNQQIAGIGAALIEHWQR
T1 sequence (Q9F663 whole entry H272Y, looked up): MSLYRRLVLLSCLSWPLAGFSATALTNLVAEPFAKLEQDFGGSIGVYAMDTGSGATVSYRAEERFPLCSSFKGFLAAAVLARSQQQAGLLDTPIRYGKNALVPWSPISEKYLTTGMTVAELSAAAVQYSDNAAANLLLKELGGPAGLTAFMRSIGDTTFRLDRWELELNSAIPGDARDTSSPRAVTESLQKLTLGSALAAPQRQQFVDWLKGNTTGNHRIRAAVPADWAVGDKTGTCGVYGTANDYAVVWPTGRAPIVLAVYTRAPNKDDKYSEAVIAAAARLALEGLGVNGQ
SHV-2, lysate of ec306, sequence (P0A9Z7 22-286): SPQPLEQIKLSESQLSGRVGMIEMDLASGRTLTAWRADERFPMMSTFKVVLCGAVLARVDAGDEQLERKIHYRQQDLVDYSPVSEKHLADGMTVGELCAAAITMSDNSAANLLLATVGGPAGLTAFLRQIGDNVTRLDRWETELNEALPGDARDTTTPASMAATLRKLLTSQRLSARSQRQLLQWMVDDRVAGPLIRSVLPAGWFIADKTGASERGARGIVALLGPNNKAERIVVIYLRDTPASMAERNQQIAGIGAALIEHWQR

## CC(C)(O/N=C(\C(=O)N[C@@H]1C(=O)N2C(C(=O)[O-])=C(C[n+]3ccccc3)CS[C@H]12)c1csc(N)n1)C(=O)O [Ceftazidime, reference compound]
[1]; Klebsiella pneumoniae, read-out: Ceftazidime MIC Alone
  MIC: 1 to 8 µg/mL

## CC(=O)N[C@H]1CCC(CC(=O)O)OB1O (stereo partly drawn) [Compound 3, 2-((3R)-3-acetamido-2-hydroxy-1,2-oxaborinan-6-yl)acetic acid]
[1]
  Ceftazidime MIC with cyclic boronic acid ester derivative: X (MIC of 1 μg/mL or less)
SHV-2, lysate of ec306
  IC50: > 4.65 µM
[2]
  MPC8: Z (MPC8 of greater than 1 μg/mL)
DHA-1, lysate of EC1014
  IC50: > 4.65 µM
[3]
  MPC8: X (MPC8 of less than 0.16 μg/mL)
SHV-12, lysate of KP1010
  IC50: > 4.65 µM

## O=C(O)CC1CC[C@H](NC(=O)C2CC2)B(O)O1 (stereo partly drawn) [Compound 4, 2-((3R)-3-(cyclopropanecarboxamido)-2-hydroxy-1,2-oxaborinan-6-yl)acetic acid]
[1]
  Ceftazidime MIC with cyclic boronic acid ester derivative: X (MIC of 1 μg/mL or less)
SHV-2, lysate of ec306
  IC50: > 4.15 µM
[2]
  MPC8: Z (MPC8 of greater than 1 μg/mL)
DHA-1, lysate of EC1014
  IC50: > 4.15 µM
[3]
  MPC8: X (MPC8 of less than 0.16 μg/mL)
SHV-12, lysate of KP1010
  IC50: > 4.15 µM
KPC-3, lysate of EC1007 [4]
  IC50: < 0.415 µM

## O=C(O)C[C@@H]1CC[C@H](NC(=O)Cc2cccs2)B(O)O1 [Compound 5, 2-((3R,6S)-2-hydroxy-3-(2-(thiophen-2-yl)acetamido)-1,2-oxaborinan-6-yl)acetic acid]
SHV-2, lysate of ec306
  IC50: 0.337 to 3.37 µM
[2]
  MPC8: Z (MPC8 of greater than 1 μg/mL)
DHA-1, lysate of EC1014
  IC50: 0.337 to 3.37 µM
SHV-12, lysate of KP1010
  IC50: 0.337 to 3.37 µM
[5]
  MPC8: X (MPC8 of less than 0.16 μg/mL)
[6]
  MPC4 CTX-M-14 KP1005: Z (key: X: MPC@4 of less than 2 μg/mL; Y: MPC@4 of 2 μg/mL to 10 μg/mL; Z: MPC@4 of greater than 10 μg/mL)
  MPC4 CTX-M-15 KP1009: Z (key: X: MPC@4 of less than 2 μg/mL; Y: MPC@4 of 2 μg/mL to 10 μg/mL; Z: MPC@4 of greater than 10 μg/mL)
  MPC4 SHV-5 ec308: Z (key: X: MPC@4 of less than 2 μg/mL; Y: MPC@4 of 2 μg/mL to 10 μg/mL; Z: MPC@4 of greater than 10 μg/mL)
  MPC4 SHV-12 KP1010: Z (key: X: MPC@4 of less than 2 μg/mL; Y: MPC@4 of 2 μg/mL to 10 μg/mL; Z: MPC@4 of greater than 10 μg/mL)
  MPC4 SHV-18 KP1012: Z (key: X: MPC@4 of less than 2 μg/mL; Y: MPC@4 of 2 μg/mL to 10 μg/mL; Z: MPC@4 of greater than 10 μg/mL)
  MPC4 TEM-10 EC1009: Z (key: X: MPC@4 of less than 2 μg/mL; Y: MPC@4 of 2 μg/mL to 10 μg/mL; Z: MPC@4 of greater than 10 μg/mL)
  MPC4 TEM-10 ec302: Z (key: X: MPC@4 of less than 2 μg/mL; Y: MPC@4 of 2 μg/mL to 10 μg/mL; Z: MPC@4 of greater than 10 μg/mL)
  MPC4 TEM-26 ec304: Z (key: X: MPC@4 of less than 2 μg/mL; Y: MPC@4 of 2 μg/mL to 10 μg/mL; Z: MPC@4 of greater than 10 μg/mL)
[7]; Sprague-Dawley, rat, plasma, male SD rats, IV, 20 mg/kg
  half-life: 1.56 h
[7]; Sprague-Dawley, rat, plasma, male SD rats, PO, 50 mg/kg
  half-life: 1.55 h
[7]; Sprague-Dawley, rat, plasma, male SD rats, PO, 50 mg/kg, read-out: AUC
  AUC: 810 ng·h/mL
[7]; Sprague-Dawley, rat, plasma, male SD rats, PO, 50 mg/kg, read-out: CL/F (converted)
  CL/F: 1010 mL/min/kg
[7]; Sprague-Dawley, rat, plasma, male SD rats, PO, 50 mg/kg, read-out: Cmax
  Cmax: 290 ng/mL
[7]; male SD rats, IV, 20 mg/kg
  AUC: 12150 ng·h/mL
  CL/F: 27.5 mL/min/kg
  Cmax: 19820 ng/mL
[7]; male SD rats, IV, 50 mg/kg
  AUC: 28190 ng·h/mL
  CL/F: 29.5 mL/min/kg
  Cmax: 45930 ng/mL
  T1/2: 4.53 h
[7]; rats, 50 mg/kg orally in saline
  oral absorption: not orally absorbed
[7]; rats, intravenous 20 or 50 mg/kg
  PK linearity: linear PK

## O=C(O)C[C@@H]1CC[C@H](NC(=O)Cc2ccccc2)B(O)O1 [Compound 6, 2-((3R,6S)-2-hydroxy-3-(2-phenylacetamido)-1,2-oxaborinan-6-yl)acetic acid]
[1]
  Ceftazidime MIC with cyclic boronic acid ester derivative: X (MIC of 1 μg/mL or less)
SHV-2, lysate of ec306
  IC50: 0.344 to 3.44 µM
[2]
  MPC8: Z (MPC8 of greater than 1 μg/mL)
DHA-1, lysate of EC1014
  IC50: > 3.44 µM
SHV-12, lysate of KP1010
  IC50: > 3.44 µM
[5]
  MPC8: X (MPC8 of less than 0.16 μg/mL)

## Cl.N[C@H]1CCC(CC(=O)O)OB1O (stereo partly drawn) [Compound 7, 2-((3R)-3-amino-2-hydroxy-1,2-oxaborinan-6-yl)acetic acid hydrochloride]
SHV-2, lysate of ec306
  IC50: > 4.77 µM
KPC-3, lysate of EC1007 [8]
  IC50: > 4.77 µM
DHA-1, lysate of EC1014
  IC50: > 4.77 µM
SHV-12, lysate of KP1010
  IC50: > 4.77 µM
KPC-3, lysate of EC1007 [4]
  IC50: > 4.77 µM
